{"source": "patent US6548549B1", "about": "“Acylaminosalicylic acid amides and their uses as pesticides” (Bayer Aktiengesellschaft, priority 1995, dated 2003)", "key": {"Botrytis cinerea": {"test_system": "Botrytis cinerea", "assay": "Botrytis test (beans)/protective", "assay_type": "in vivo", "details": "protective, 500 ppm active compound, lesion size 3 days after inoculation", "procedure": "Botrytis Test (Beans)/Protective Solvent: 4.7 parts by weight of acetone Emulsifier: 0.3 part by weight of alkylaryl polyglycol ether To produce a suitable preparation of active compound, 1 part by weight of active compound is mixed with the stated amounts of solvent and emulsifier, and the concentrate is diluted with water to the desired concentration. To test for protective activity, young plants are sprayed with the preparation of active compound. After the spray coating has dried on, 2 small pieces of agar covered with Botrytis cinerea are placed on each leaf. The inoculated plants are then placed in a darkened humid chamber at 20° C. 3 days after the inoculation, the size of the lesions on the leaves is evaluated."}, "[1]": {"test_system": "mustard beetle larvae (Phaedon cochleariae)", "assay": "Phaedon larvae test", "assay_type": "in vivo", "details": "cabbage leaves dipped, active compound concentration 0.01%, after 7 days", "procedure": "(§1) Phaedon Larvae Test Solvent: 7 parts by weight of dimethylformamide Emulsifier: 1 part by weight of alkylaryl polyglycol ether To produce a suitable preparation of active compound, 1 part by weight of active compound is mixed with the stated amount of solvent and the stated amount of emulsifier, and the concentrate is diluted with water to the desired concentration. Cabbage leaves (Brassica oleracea) are treated by being dipped into the preparation of the active compound of the desired concentration and are populated with mustard beetle larvae (Phaedon cochleariae) while the leaves are still moist. After the specified period of time, the destruction in % is determined. 100% means that all the beetle larvae have been killed; 0% means that none of the beetle larvae have been killed."}, "[2]": {"test_system": "caterpillars of the fall armyworm Spodoptera frugiperda", "assay": "Spodoptera test", "assay_type": "in vivo", "details": "cabbage leaves dipped, concentration 0.1%, after 7 days", "procedure": "as §1, with “Spodoptera” for “Phaedon Larvae”, “[…]” for “weight of dimethylformamide”, “caterpillars of the fall armyworm Spodoptera frugiperda” for “mustard beetle larvae (Phaedon cochleariae)”, “activity” for “destruction”, “caterpillars” for “beetle larvae”"}, "[3]": {"test_system": "larvae of the green rice leafhopper (Nephotettix cincticeps)", "assay": "Nephotettix test", "assay_type": "in vivo", "details": "rice seedlings dipped, active compound concentration 0.001%, after 7 days", "procedure": "Nephotettix Test Solvent: 7 parts by weight of dimethylformamide Emulsifier: 1 part by weight of alkylaryl polyglycol ether To produce a suitable preparation of active compound, 1 part by weight of active compound is mixed with the stated amount of solvent and the stated amount of emulsifier, and the concentrate is diluted with water to the desired concentration. Rice seedlings (Oryza sativa) are treated by being dipped into the preparation of the active compound of the desired concentration and populated with larvae of the green rice leafhopper (Nephotettix cincticeps) while the seedlings are still moist. After the specified period of time, the destruction in % is determined. 100% means that all the leafhoppers have been killed; 0% means that none of the leafhoppers have been killed."}, "Sphaerotheca fuliginea": {"test_system": "Sphaerotheca fuliginea", "assay": "Sphaerotheca test (cucumber)/protective", "assay_type": "in vivo", "details": "protective, 100 ppm active substance, evaluation 10 days after inoculation", "procedure": "Sphaerotheca Test (Cucumber)/Protective Solvent: 4.7 parts by weight of acetone Emulsifier: 0.3 part by weight of alkylaryl polyglycol ether To produce a suitable preparation of active compound, 1 part by weight of active compound is mixed with the stated amounts of solvent and emulsifier, and the concentrate is diluted with water to the desired concentration. To test for protective activity, young plants are sprayed with the preparation of active compound. After the spray coating has dried on, the plants are dusted with conidia of the fungus Sphaerotheca fuliginea. The plants are then placed in a greenhouse at 23 to 24° C. and at a relative atmospheric humidity of about 75%. Evaluation is carried out 10 days after the inoculation."}, "Pyricularia oryzae": {"test_system": "Pyricularia oryzae", "assay_type": "in vivo", "details": "rice, protective, active compound concentration 0.05%, evaluation 4 days after inoculation"}, "[4]": {"test_system": "Pseudocercosporella herpotrichoides", "assay": "Pseudocercosporella herpotrichoides test (wheat)/protective", "assay_type": "in vivo", "details": "protective, application rate 250 g/ha, evaluation 21 days after inoculation", "procedure": "Pseudocercosporella herpotrichoides Test (Wheat)/Protective Solvent: 10 parts by weight of N-methyl-pyrrolidone Emulsifier: 0.6 part by weight of alkylaryl polyglycol ether To produce a suitable preparation of active compound, 1 part by weight of active compound is mixed with the stated amounts of solvent and emulsifier, and the concentrate is diluted with water to the desired concentration. To test for protective activity, young plants are sprayed with the preparation of active compound at the rate of application shown. After the spray coating has dried on, the stem base of the plants is inoculated with spores of Pseudocercosporella herpotrichoides. […] Evaluation is carried out 21 days after the inoculation."}}}
{"compound": "CC(NC(=O)c1cccc(NC=O)c1O)c1ccc(Cl)cc1Cl", "note": "(stereo not drawn) [Example 15]", "values": [{"measurement": "efficacy", "setting": "Botrytis cinerea", "result": 90, "unit": "%"}]}
{"compound": "O=CNc1cccc(C(=O)Nc2ccc(-c3ccccc3)cc2)c1O", "note": "[Example 2, 3-formamido-2-hydroxy-N-(4-phenylphenyl)-benzamide]", "values": [{"measurement": "efficacy", "setting": "Botrytis cinerea", "result": 90, "unit": "%"}, {"measurement": "melting point", "result": 190, "unit": "°C"}]}
{"compound": "CCc1ccc(C(C)NC(=O)c2cccc(NC=O)c2O)cc1", "note": "(stereo not drawn) [Example 16]", "values": [{"measurement": "efficacy", "setting": "Botrytis cinerea", "result": 90, "unit": "%"}]}
{"compound": "CC(NC(=O)c1cccc([N+](=O)[O-])c1OCc1ccccc1)c1cccc(C(F)(F)F)c1", "note": "(stereo not drawn) [Example V-34]", "values": [{"measurement": "destruction", "setting": "[1]", "result": 100, "unit": "%"}]}
{"compound": "O=C(Nc1ccc(-c2ccccc2)cc1)c1cccc([N+](=O)[O-])c1O", "note": "[IV-a-1, 3-nitro-2-hydroxy-N-(4-phenyl-phenyl)-benzamide]", "values": [{"measurement": "melting point", "result": 152, "unit": "°C"}]}
{"compound": "CCc1ccc(-c2ccc(CCNC(=O)c3cccc(NC=O)c3O)cc2)cc1", "note": "[Example 47]", "values": [{"measurement": "destruction", "setting": "[1]", "result": 100, "unit": "%"}, {"measurement": "destruction rate", "setting": "[2]", "result": 85, "unit": "%"}]}
{"compound": "CC(NC(=O)c1cccc(NC=O)c1O)C1CC=CCC1", "note": "(stereo not drawn) [Example 71]", "values": [{"measurement": "destruction", "setting": "[3]", "result": 100, "unit": "%"}]}
{"compound": "CC(NC(=O)c1cccc(NC=O)c1O)c1ccc(F)cc1", "note": "(stereo not drawn) [Example 3, 3-formamido-2-hydroxy-N-[1-(4-fluorphenyl)-ethyl)-benzamide]", "values": [{"measurement": "efficacy", "setting": "Botrytis cinerea", "result": 90, "unit": "%"}]}
{"compound": "O=CNc1cccc(C(=O)NCc2cccc(C(F)(F)F)c2)c1O", "note": "[Example 39]", "values": [{"measurement": "destruction", "setting": "[3]", "result": 100, "unit": "%"}]}
{"compound": "O=CNc1cccc(C(=O)Nc2ccc(Oc3cccc(C(F)(F)F)c3)cc2)c1O", "note": "[Example 5]", "values": [{"measurement": "efficacy", "setting": "Sphaerotheca fuliginea", "result": "over 80%"}, {"measurement": "efficacy", "setting": "Pyricularia oryzae", "result": "over 80%"}, {"measurement": "efficacy", "setting": "[4]", "result": "over 80%"}, {"measurement": "efficacy", "setting": "Botrytis cinerea", "result": 90, "unit": "%"}]}
{"compound": "COc1cccc(C(C)NC(=O)c2cccc(NC=O)c2O)c1", "note": "(stereo not drawn) [Example 10]", "values": [{"measurement": "efficacy", "setting": "Botrytis cinerea", "result": 90, "unit": "%"}]}
{"compound": "O=CNc1cccc(C(=O)NCc2ccc(F)cc2)c1O", "note": "[Example 35]", "values": [{"measurement": "destruction", "setting": "[3]", "result": 100, "unit": "%"}]}
{"compound": "O=CNc1cccc(C(=O)Nc2ccc(Oc3ccc(Cl)cc3)c(Cl)c2)c1O", "note": "[Example 4]", "values": [{"measurement": "efficacy", "setting": "Botrytis cinerea", "result": 90, "unit": "%"}]}
